Results published in patent US12227500B2, “Substituted pyrrolo[2,3-b]pyridines for suppressing toxic endoplasmic reticulum stress” (THE TRUSTEES OF COLUMBIA UNIVERSITY IN THE CITY OF NEW YORK, priority 2018, dated 2025).

Legend:
[1] = molecular target: T1, panel of 60 human kinases (Homo sapiens, UniProt P49759); assay: Radiolabeled ATP kinase assay, panel of 60 kinases (Table S5); format: biochemical; conditions: CLK1; 0.1 μM; 10 μM ATP; read-out: % Enzyme Activity (relative to DSMO controls)
T1 construct: purchased Reaction Biology Corp
Experimental: (§1) To better understand the biologically relevant targets of compound 1 and its analogs, a second round of cell-free kinase assays was performed. In this expanded assay, we selected ten analogs ranging from moderately to very strongly protective in the CPA assay. These analogs were evaluated for their ability to inhibit a selection of 60 kinases at 0.1 μM and 0.5 μM. […] RNAseq data were used to confirm the expression of each kinase in ES MNs (see Example 12).
(§2) RNAseq data were used to confirm the expression of each kinase in ES motor neurons (see Example 12).

[2] = molecular target: T2, panel of 60 human kinases (Homo sapiens, UniProt Q16288); assay: as above; format: biochemical; conditions: TRKC; 0.1 μM; 10 μM ATP; read-out: % Enzyme Activity (relative to DSMO controls)
T2 construct: purchased Reaction Biology Corp
Experimental: as §1, §2

[3] = molecular target: T3, panel of 60 human kinases (Homo sapiens, UniProt O14965); assay: as above; format: biochemical; conditions: Aurora A; 0.1 μM; 10 μM ATP; read-out: % Enzyme Activity (relative to DSMO controls)
T3 construct: purchased Reaction Biology Corp
T3 sequence (O14965 1-403): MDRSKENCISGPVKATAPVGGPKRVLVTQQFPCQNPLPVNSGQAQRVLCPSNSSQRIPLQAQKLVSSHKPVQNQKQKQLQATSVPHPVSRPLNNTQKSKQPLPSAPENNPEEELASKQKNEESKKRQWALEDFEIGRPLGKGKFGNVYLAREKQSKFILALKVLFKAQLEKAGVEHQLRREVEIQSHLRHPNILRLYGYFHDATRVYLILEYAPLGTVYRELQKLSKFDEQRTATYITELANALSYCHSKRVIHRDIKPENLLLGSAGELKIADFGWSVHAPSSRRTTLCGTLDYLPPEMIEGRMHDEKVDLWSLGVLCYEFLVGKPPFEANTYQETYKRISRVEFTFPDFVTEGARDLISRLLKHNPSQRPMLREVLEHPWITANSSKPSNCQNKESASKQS
Experimental: as §1, §2

[4] = molecular target: T4, panel of 60 human kinases (Homo sapiens, UniProt Q92630); assay: as above; format: biochemical; conditions: DYRK2; 0.1 μM; 10 μM ATP; read-out: % Enzyme Activity (relative to DSMO controls)
T4 construct: purchased Reaction Biology Corp
T4 sequence (Q92630 1-601): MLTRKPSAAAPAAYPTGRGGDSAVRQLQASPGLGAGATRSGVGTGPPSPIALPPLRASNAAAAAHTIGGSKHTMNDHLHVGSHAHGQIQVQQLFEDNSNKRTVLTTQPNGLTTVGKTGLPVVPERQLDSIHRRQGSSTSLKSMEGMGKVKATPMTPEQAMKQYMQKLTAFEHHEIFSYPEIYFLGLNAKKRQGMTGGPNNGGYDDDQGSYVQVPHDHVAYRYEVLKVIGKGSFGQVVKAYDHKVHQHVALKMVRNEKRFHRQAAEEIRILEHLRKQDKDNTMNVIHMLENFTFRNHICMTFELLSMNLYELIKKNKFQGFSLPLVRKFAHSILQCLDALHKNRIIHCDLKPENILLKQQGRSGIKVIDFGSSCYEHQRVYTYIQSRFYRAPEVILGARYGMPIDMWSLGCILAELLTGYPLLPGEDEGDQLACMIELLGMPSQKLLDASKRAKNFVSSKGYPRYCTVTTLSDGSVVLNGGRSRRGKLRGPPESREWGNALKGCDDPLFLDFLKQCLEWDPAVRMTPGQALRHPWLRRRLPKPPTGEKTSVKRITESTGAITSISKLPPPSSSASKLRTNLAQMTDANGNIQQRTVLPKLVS
Experimental: as §1, §2

[5] = molecular target: T5, panel of 60 human kinases (Homo sapiens, UniProt P42684); assay: as above; format: biochemical; conditions: ABL2/ARG; 0.1 μM; 10 μM ATP; read-out: % Enzyme Activity (relative to DSMO controls)
T5 construct: purchased Reaction Biology Corp
Experimental: as §1, §2

[6] = molecular target: T6, panel of 60 human kinases (Homo sapiens, UniProt Q9UM73); assay: as above; format: biochemical; conditions: ALK; 0.1 μM; 10 μM ATP; read-out: % Enzyme Activity (relative to DSMO controls)
T6 construct: purchased Reaction Biology Corp
Experimental: as §1, §2

[7] = molecular target: T7, panel of 60 human kinases (Homo sapiens, UniProt P00519); assay: as above; format: biochemical; conditions: ABL1; 0.1 μM; 10 μM ATP; read-out: % Enzyme Activity (relative to DSMO controls)
T7 construct: purchased Reaction Biology Corp
Experimental: as §1, §2

[8] = molecular target: T8, panel of 60 human kinases (Homo sapiens, UniProt Q9UKE5); assay: as above; format: biochemical; conditions: TNIK; 0.1 μM; 10 μM ATP; read-out: % Enzyme Activity (relative to DSMO controls)
T8 construct: purchased Reaction Biology Corp
Experimental: as §1, §2

[9] = molecular target: T9, panel of 60 human kinases (Homo sapiens, UniProt P53779); assay: as above; format: biochemical; conditions: JNK3; 0.1 μM; 10 μM ATP; read-out: % Enzyme Activity (relative to DSMO controls)
T9 construct: purchased Reaction Biology Corp
Experimental: as §1, §2

[10] = molecular target: T10, panel of 60 human kinases (Homo sapiens, UniProt P22607); assay: as above; format: biochemical; conditions: FGFR3; 0.1 μM; 10 μM ATP; read-out: % Enzyme Activity (relative to DSMO controls)
T10 construct: purchased Reaction Biology Corp
Experimental: as §1, §2

[11] = test system: human ES motor neurons carrying the ALS-causing SOD1^A4V mutation; assay: cells; format: cell-based; conditions: Homo sapiens, Neuron, 72 h, 72 h
Experimental: Next, survival assays were performed with all the analogs at once to generate a low-variability dataset. All compounds were evaluated at concentrations ranging from 0.1-3.0 μM (five-point dilution) in three technical replicates and two biological replicates.

T8 sequence (Q9UKE5 whole entry): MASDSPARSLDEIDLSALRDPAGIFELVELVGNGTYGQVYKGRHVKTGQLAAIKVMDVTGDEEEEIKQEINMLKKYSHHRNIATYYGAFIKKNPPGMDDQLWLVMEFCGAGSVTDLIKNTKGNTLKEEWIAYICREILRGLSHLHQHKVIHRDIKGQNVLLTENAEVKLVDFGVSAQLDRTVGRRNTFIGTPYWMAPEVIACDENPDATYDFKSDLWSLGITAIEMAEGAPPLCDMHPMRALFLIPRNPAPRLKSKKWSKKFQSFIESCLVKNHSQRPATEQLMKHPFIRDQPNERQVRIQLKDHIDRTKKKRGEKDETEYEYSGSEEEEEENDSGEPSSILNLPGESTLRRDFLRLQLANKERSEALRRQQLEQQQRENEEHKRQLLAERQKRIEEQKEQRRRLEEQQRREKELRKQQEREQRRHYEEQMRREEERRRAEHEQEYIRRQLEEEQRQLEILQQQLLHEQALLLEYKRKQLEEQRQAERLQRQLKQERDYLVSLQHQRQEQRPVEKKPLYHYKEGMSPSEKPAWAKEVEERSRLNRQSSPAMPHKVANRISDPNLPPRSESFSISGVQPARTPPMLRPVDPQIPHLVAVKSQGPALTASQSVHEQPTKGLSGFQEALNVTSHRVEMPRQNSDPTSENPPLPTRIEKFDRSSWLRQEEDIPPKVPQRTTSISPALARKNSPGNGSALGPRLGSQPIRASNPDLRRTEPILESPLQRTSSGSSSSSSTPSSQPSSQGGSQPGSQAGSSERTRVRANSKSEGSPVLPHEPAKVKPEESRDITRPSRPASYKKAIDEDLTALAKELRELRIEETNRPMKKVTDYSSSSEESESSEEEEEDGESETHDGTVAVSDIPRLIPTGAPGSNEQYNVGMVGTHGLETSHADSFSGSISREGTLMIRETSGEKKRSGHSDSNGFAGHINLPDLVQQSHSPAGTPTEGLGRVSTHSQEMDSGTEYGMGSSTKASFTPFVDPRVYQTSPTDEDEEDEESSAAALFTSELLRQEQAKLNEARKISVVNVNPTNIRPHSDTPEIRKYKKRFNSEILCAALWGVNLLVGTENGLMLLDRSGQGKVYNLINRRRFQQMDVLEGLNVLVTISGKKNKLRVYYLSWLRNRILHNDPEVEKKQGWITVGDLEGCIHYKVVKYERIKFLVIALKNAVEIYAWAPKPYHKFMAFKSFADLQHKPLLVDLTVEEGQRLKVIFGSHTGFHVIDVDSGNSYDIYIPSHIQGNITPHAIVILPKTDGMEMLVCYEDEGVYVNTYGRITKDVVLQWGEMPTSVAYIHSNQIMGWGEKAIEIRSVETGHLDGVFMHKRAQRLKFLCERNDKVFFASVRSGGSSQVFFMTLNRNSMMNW
T7 sequence (P00519 whole entry): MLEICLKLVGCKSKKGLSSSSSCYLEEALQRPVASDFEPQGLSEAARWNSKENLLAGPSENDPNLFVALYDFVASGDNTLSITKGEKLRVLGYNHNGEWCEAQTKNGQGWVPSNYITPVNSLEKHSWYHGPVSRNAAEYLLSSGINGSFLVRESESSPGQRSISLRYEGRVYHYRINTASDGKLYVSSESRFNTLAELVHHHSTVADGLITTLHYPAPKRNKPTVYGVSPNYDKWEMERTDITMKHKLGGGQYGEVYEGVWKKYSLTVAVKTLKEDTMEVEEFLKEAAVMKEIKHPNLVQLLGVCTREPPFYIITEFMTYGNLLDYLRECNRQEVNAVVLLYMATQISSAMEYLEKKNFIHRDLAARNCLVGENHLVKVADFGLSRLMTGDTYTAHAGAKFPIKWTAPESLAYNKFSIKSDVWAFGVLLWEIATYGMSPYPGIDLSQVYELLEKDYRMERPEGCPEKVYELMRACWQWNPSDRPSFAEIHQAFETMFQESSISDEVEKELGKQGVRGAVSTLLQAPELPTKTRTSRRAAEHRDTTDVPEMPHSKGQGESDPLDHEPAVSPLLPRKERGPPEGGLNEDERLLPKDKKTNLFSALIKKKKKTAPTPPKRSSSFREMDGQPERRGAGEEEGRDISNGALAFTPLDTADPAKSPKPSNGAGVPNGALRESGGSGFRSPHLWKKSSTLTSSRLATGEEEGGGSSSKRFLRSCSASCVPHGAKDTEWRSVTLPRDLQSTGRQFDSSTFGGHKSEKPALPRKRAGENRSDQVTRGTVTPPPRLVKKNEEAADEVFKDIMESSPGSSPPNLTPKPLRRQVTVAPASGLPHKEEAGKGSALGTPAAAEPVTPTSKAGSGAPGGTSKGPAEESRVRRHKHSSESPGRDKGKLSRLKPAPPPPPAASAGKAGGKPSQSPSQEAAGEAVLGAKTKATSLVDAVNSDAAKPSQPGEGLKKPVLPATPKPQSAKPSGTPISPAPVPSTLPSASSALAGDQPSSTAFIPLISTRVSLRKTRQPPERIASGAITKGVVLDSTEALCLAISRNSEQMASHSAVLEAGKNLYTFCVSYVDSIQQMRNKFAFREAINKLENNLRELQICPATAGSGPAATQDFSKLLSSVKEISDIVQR
T10 sequence (P22607 23-806): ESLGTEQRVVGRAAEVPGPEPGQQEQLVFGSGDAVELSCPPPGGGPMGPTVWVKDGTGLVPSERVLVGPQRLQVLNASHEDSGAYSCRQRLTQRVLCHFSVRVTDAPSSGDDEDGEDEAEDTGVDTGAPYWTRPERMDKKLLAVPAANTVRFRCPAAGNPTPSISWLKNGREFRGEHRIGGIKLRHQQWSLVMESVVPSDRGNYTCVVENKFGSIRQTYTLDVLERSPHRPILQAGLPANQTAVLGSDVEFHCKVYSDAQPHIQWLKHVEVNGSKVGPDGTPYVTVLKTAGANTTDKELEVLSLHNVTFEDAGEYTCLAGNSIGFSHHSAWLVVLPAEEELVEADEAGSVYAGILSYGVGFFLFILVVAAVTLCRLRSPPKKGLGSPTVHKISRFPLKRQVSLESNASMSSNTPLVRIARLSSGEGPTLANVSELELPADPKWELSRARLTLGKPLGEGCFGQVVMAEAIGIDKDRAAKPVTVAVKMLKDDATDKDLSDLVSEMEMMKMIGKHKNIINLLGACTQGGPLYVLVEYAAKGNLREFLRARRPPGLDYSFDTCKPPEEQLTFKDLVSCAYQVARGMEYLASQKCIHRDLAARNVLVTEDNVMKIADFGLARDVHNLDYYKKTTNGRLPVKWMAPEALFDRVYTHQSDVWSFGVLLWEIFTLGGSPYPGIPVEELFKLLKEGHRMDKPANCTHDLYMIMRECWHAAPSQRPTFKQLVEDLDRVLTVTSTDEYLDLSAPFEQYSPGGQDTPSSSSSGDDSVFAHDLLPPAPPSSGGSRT
T6 sequence (Q9UM73 19-1620): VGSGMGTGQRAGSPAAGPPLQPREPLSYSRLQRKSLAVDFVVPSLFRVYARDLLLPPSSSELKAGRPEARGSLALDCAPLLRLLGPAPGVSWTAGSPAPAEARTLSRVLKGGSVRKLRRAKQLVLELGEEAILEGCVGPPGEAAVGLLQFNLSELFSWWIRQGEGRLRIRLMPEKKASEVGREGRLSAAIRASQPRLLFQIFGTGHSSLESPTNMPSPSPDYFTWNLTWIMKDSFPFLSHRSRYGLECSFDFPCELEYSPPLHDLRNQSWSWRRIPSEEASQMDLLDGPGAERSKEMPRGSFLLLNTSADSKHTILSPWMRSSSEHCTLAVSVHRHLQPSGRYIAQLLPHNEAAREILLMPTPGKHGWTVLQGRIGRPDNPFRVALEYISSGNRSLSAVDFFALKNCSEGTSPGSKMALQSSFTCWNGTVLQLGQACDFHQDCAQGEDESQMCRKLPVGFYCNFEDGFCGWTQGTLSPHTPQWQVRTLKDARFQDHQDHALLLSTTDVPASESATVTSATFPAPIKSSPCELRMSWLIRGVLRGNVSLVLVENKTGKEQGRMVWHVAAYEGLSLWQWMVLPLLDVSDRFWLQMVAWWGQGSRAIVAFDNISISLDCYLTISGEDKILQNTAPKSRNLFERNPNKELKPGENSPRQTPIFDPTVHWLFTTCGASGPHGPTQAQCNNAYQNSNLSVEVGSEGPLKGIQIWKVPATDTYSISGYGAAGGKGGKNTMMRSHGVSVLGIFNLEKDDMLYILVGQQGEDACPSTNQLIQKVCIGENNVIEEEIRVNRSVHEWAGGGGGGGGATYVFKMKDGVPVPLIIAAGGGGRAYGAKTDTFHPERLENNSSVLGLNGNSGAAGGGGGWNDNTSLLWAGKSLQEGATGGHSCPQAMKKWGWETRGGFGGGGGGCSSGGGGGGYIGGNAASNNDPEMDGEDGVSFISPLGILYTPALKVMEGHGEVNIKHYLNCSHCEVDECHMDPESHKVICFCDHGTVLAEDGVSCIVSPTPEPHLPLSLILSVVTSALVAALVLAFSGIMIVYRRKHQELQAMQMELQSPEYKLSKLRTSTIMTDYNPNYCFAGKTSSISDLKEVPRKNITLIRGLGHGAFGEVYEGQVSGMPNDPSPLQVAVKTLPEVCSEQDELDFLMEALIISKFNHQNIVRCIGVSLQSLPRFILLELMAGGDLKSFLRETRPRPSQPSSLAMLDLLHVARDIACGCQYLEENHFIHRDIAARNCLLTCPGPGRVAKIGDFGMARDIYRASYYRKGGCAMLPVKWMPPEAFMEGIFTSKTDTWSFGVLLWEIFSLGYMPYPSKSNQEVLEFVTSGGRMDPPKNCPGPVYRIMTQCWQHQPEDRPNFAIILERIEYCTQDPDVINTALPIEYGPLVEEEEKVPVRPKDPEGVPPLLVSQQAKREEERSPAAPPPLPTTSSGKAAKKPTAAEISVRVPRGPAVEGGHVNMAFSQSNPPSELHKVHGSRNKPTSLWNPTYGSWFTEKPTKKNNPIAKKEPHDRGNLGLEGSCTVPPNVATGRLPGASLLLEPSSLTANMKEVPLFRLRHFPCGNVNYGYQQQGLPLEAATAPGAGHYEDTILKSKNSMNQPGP

Compound: CN1CCN(Cc2ccc(-c3cnc4[nH]cc(-c5ccccc5Cl)c4c3)cc2)CC1 [Compound 7as, 3-(2-Chlorophenyl)-5-(4-((4-methylpiperazin-1-yl)methyl)phenyl)-1H-pyrrolo[2,3-b]pyridine]
- remaining activity at 0.1 µM [1]: 44.6%
- remaining activity at 0.1 µM [2]: 6.32%
- remaining activity at 0.1 µM [3]: 81.1%
- remaining activity at 0.1 µM [4]: 18.2%
- remaining activity at 0.1 µM [5]: 0.99%
- remaining activity at 0.1 µM [6]: 70.5%
- remaining activity at 0.1 µM [7]: 5.92%
- remaining activity at 0.1 µM [8]: 0.51%
- remaining activity at 0.1 µM [9]: 111%
- remaining activity at 0.1 µM [10]: 42.3%
- EC50 ([11]; CPA 33 μM, read-out: EC50): 0.329 µM
- viability at 1 µM ([11]; CPA (33 μM) + compound (1 μM), read-out: Motor Neuron Survival, % untreated): 80.8%
- Emax ([11]; CPA 33 μM, read-out: Emax (MN survival % untreated)): 80.8%
